The subject of data set [1] is foxtail, green (green foxtail, Setaria viridis). The data set is described as follows: Test A preemergence, foxtail, green. The data set is classed as in vivo. Particulars: Setaria, pre-emergence, 240 h, 0 to 100 scale (0 no effect, 100 complete control), read-out: Plant response rating, Foxtail, Green; for pest or weed control at 31 g/ha: 31 g ai/ha; for pest or weed control at 125 g/ha: 125 g ai/ha. From the text:
(§1) Seeds of plant species selected from barnyardgrass (Echinochloa crus-galli), kochia (Kochia scoparia), ragweed (common ragweed, Ambrosia elatior), ryegrass, Italian (Italian ryegrass, Lolium multiflorum), foxtail, giant (giant foxtail, Setaria faberii), foxtail, green (green foxtail, Setaria viridis) and pigweed (Amaranthus retroflexus) were planted into a blend of loam soil and sand and treated preemergence with a directed soil spray using test chemicals formulated in a non-phytotoxic solvent mixture which included a surfactant.
(§2) At the same time, plants selected from these weed species and also wheat (Triticum aestivum), corn (Zea mays), blackgrass (Alopecurus myosuroides), and galium (catchweed bedstraw, Galium aparine) were planted in pots containing the same blend of loam soil and sand and treated with postemergence applications of test chemicals formulated in the same manner. Plants ranged in height from 2 to 10 cm and were in the one- to two-leaf stage for the postemergence treatment. Treated plants and untreated controls were maintained in a greenhouse for approximately 10 days, after which time all treated plants were compared to untreated controls and visually evaluated for injury. […] A dash (-) response means no test result.

For data set [2], the system named is foxtail, giant (giant foxtail, Setaria faberii). In words: Test A preemergence, foxtail, giant. Particulars: Setaria faberi, pre-emergence, 240 h, 0 to 100 scale (0 no effect, 100 complete control), read-out: Plant response rating, Foxtail, Giant; for pest or weed control at 31 g/ha: 31 g ai/ha; for pest or weed control at 125 g/ha: 125 g ai/ha. The data set is classed as in vivo.
Source text: as §1, §2

Data set [3] has the same test system. The data set is described as follows: Test A postemergence, foxtail, giant. The data set is classed as in vivo. Particulars: Setaria faberi, post-emergence, 240 h, 0 to 100 scale (0 no effect, 100 complete control), read-out: Plant response rating, Foxtail, Giant; for pest or weed control at 31 g/ha: 31 g ai/ha; for pest or weed control at 125 g/ha: 125 g ai/ha.
Source text: as §1, §2

SMILES strings stand for the structures.

Regarding `CN1C(=O)c2cccc(Oc3ncc(Cl)cn3)c2C1CCCC(F)(F)F` (stereo not drawn) [Compound 12, 4-[(5-Chloro-2-pyrimidinyl)oxy]-2,3-dihydro-2-methyl-3-(4,4,4-trifluorobutyl)-1H-isoindol-1-one], in data set [1], the pest or weed control at 31 g/ha was found to be 0% and the pest or weed control at 125 g/ha was 0%.

`O=C1NC(CCCC(F)(F)F)c2c(Oc3ncc(Cl)cn3)cccc21` (stereo not drawn) [Compound 13, 4-[(5-Chloro-2-pyrimidinyl)oxy]-2,3-dihydro-3-(4,4,4-trifluorobutyl)-1H-isoindol-1-one]: in data set [1], the pest or weed control at 31 g/ha was determined as 0% and the pest or weed control at 125 g/ha is 0%.

For `OC1(CCC(F)(F)F)CCc2cccc(Oc3ncc(Cl)cn3)c21` (stereo not drawn) [Compound 14, 7-[(5-Chloro-2-pyrimidinyl)oxy]-2,3-dihydro-1-(3,3,3-trifluoropropyl)-1H-inden-1-ol], in data set [1], the pest or weed control at 125 g/ha is 40%. In addition, the pest or weed control at 500 g/ha in data set [1] (500 g ai/ha) turned out to be 100%.

Compound `O=C1Cc2cccc(Oc3ncc(Cl)cn3)c2C(CCCC(F)(F)F)O1` (stereo not drawn) [Compound 17, 8-[(5-Chloro-2-pyrimidinyl)oxy]-1,4-dihydro-1-(4,4,4-trifluorobutyl)-3H-2-benzopyran-3-one] registered a melting point of 125 to 129 °C. In data set [2], the pest or weed control at 31 g/ha was 10% and the pest or weed control at 125 g/ha was 70%. Further, in data set [3], the pest or weed control at 31 g/ha was 20% and the pest or weed control at 125 g/ha is 40%.

The compound `O=C1O[C@@H](CCC(F)(F)F)c2c(Oc3ncc(Cl)cn3)cccc21` [Compound 18, (3S)-4-[(5-Chloro-2-pyrimidinyl)oxy]-3-(3,3,3-trifluoropropyl)-1(3H)-isobenzofuranone] yielded a melting point of 99 to 101 °C. In addition, in data set [2], the pest or weed control at 31 g/ha worked out at 0% and the pest or weed control at 125 g/ha stood at 0%. In addition, in data set [3], the pest or weed control at 31 g/ha is 0% and the pest or weed control at 125 g/ha was 0%.

Take `O=C1O[C@H](CCC(F)(F)F)c2c(Oc3ncc(Cl)cn3)cccc21` [Compound 19, (3R)-4-[(5-Chloro-2-pyrimidinyl)oxy]-3-(3,3,3-trifluoropropyl)-1(3H)-isobenzofuranone]: the melting point is 94 to 99 °C. In addition, in data set [2], the pest or weed control at 31 g/ha worked out at 100% and the pest or weed control at 125 g/ha amounted to 100%. Further, in data set [3], the pest or weed control at 31 g/ha is 60% and the pest or weed control at 125 g/ha amounted to 90%.

As to `O=C1OC(CCC(F)(F)F)Cc2c(Oc3ncc(Cl)cn3)cccc21` (stereo not drawn) [Compound 23, 5-[(5-Chloro-2-pyrimidinyl)oxy]-3,4-dihydro-3-(3,3,3-trifluoropropyl)-1H-2-benzopyran-1-one], the melting point lay in the range of 117 to 121 °C. Moreover, in data set [2], the pest or weed control at 31 g/ha was found to be 0% and the pest or weed control at 125 g/ha is 40%. Further, in data set [3], the pest or weed control at 31 g/ha is 0% and the pest or weed control at 125 g/ha was determined as 10%.

The compound `O=C1Cc2cccc(Oc3ncc(Cl)cn3)c2C(CCC(F)(F)F)O1` (stereo not drawn) [Compound 28, 8-[(5-Chloro-2-pyrimidinyl)oxy]-1,4-dihydro-1-(3,3,3-trifluoropropyl)-3H-2-benzopyran-3-one] returned a melting point of 122 to 126 °C. In addition, in data set [2], the pest or weed control at 31 g/ha stood at 10% and the pest or weed control at 125 g/ha stood at 100%. In addition, in data set [3], the pest or weed control at 31 g/ha was found to be 10% and the pest or weed control at 125 g/ha is 20%.

For `O=C1OC(CCCCC(F)(F)F)Cc2c(Oc3ncc(Cl)cn3)cccc21` (stereo not drawn) [Compound 31, 5-[(5-Chloro-2-pyrimidinyl)oxy]-3,4-dihydro-3-(5,5,5-trifluoropentyl)-1H-2-benzopyran-1-one], the melting point lay within 93 to 97 °C. Also, in data set [2], the pest or weed control at 31 g/ha stood at 0% and the pest or weed control at 125 g/ha turned out to be 0%. Further, in data set [3], the pest or weed control at 31 g/ha came out at 0% and the pest or weed control at 125 g/ha was 0%.

`CCCC1OC(=O)Cc2cccc(Oc3ncc(Cl)cn3)c21` (stereo not drawn) [Compound 35, 8-[(5-Chloro-2-pyrimidinyl)oxy]-1,4-dihydro-1-propyl-3H-2-benzopyran-3-one] registered a melting point of 136 to 140 °C. In data set [1], the pest or weed control at 31 g/ha amounted to 0% and the pest or weed control at 125 g/ha is 10%.

The melting point is the temperature, or range, at which the solid turns liquid.

The values above are taken from patent US11427549B2, “Pyrimidinyloxy benzo-fused compounds as herbicides” (FMC Corporation, priority 2017, dated 2022).
